Source: article PMC10746753 (Pharmaceutical Research, 2023)

Test system: Caki-1 xenografts
Test: Anti-tumor efficacy study EFF-02
Assay type: in vivo, CD1 nu/nu mice
Conditions: p.o., 6–7 weeks
Experimental: For all in vivo studies, human Caki-1 renal tumor cells (ATCC: HTB-46, RRID: CVCL_0234; 5 million in 100 µL PBS w/o Ca/Mg, Matrigel [1:1]) were subcutaneously inoculated into the right flank of female 5–6-week-old CD-1 nude mice provided by Charles River Laboratories (CRL), Sulzfeld, Germany. Tumor growth was observed over time by measuring tumor length (L) and width (W) twice weekly using calipers. Tumor volume was calculated using the formula LxW^2/2. Data were collected in Study Advantage™ (data collection system).
Anti-tumor efficacy study. […] PD analysis was not performed in this study.

O=C(NCc1cc(F)cc(F)c1)[C@@]1(O)CCN(c2ccc3[nH]ccc3c2)C1=O [M8891]
minimal efficacious dose: 25 mg/kg BID
